The numbers were not newly measured in patent US11208380B2, “Process for the purification of caprolactam from a solution of crude caprolactam without organic solvent extraction” (AquafilSLO d.o.o., priority 2017, dated 2021), which cites them from elsewhere.

Consider `c1ccccc1` [Benzene], for which the “LD50, rat, oral administration” value was 930 mg/kg.

As for `ClC=C(Cl)Cl` [Trichloroethylene], the “LD50, rat, oral administration” value was 5400 mg/kg.
